Results: patent US20140249139A1, “Quinazoline Derivatives” (NOVARTIS AG, priority 2011, published 2014)

Experiments:
[1] = target: T1, PI3K alpha (Homo sapiens, UniProt P42336); assay: Enzymatic PI3K alpha isoform inhibition (lipid kinase activity, Kinase-Glo); assay type: biochemical; details: enzymatic assay
T1 construct: for the p110-a subunit (with a deletion of the first 20 amino acids) are generated; His tag (C); made in house; host or cells: baculovirus BV1075; Tn5 (Trichoplusia ni) or TiniPro insect cells
Method in brief: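 Reactions were started with ATP (2 μM solution) after the enzyme (10 nM solution) and phosphatidylinositol substrate (5 μg/ml solution) were added to the DMSO-dissolved compounds.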

[2] = test system: murine B cells; assay: Murine B cell activation: CD86 expression on CD19 positive B cells after anti-IgM stimulation; assay type: cell-based; details: Balb/c mouse splenocytes, anti-IgM 30 μg/ml, 24 hours, read-out: mCD86/ IC50 CD86
Method: PI3Kδ has been recognized to modulate B cell function when cells are stimulated through the B cell receptor (BCR) (Okkenhaug et al. Science 297:1031 (2002). For assessing the inhibitory property of compounds on B cell activation, the upregulation of activation markers CD86 and CD69 on murine B cells derived from mouse spleen […] is measured after stimulation with anti-IgM. CD69 is a well known activation marker for B and T cells (Sancho et al. Trends Immunol. 26:136 (2005). CD86 (also known as B7-2) is primarily expressed on antigen-presenting cells, including B cells. Resting B cells express CD86 at low levels, but upregulate it following stimulation of e.g. the BCR or IL-4 receptor. CD86 on a B cell interacts with CD28 on T cells. This interaction is required for optimal T cell activation and for the generation of an optimal IgG1 response (Carreno et al. Annu Rev Immunol. 20:29 (2002)).
Spleens from Balb/c mice were collected, splenocytes were isolated and washed twice with RPMI containing 10% foetal bovine serum (FBS), 10 mM HEPES, 100 Units/ml penicilline/streptomycine. RPMI supplemented in this way is subsequently referred to as medium. The cells were adjusted to 2.5×10^6 cells/ml in medium and 200 μl cell suspension ([…]) were added to the appropriate wells of 96 well plates.
Then the cells were stimulated by adding 50 μl anti-IgM mAb in medium (final concentration: 30 μg/ml). After incubation for 24 hours at 37° C., the cells were stained with the following antibody cocktails: anti-mouse CD86-FITC, anti-mouse CD69-PerCP-Cy5.5, anti-mouse CD19-PerCP for the assessment of B cells, and anti-mouse CD3-FITC, anti-mouse CD69-PE for the assessment of T cells (2 μl of each antibody/well). After one hour at room temperature (RT) in the dark the cells were transferred to 96 Deepwell plates. The cells were washed once with 1 ml PBS containing 2% FBS and after re-suspension in 200 μl the samples were analyzed on a FACS Calibur flow cytometer. Lymphocytes were gated in the FSC/SSC dot plot according to size and granularity and further analyzed for expression of CD19, CD3 and activation markers (CD86, CD69). Data were calculated from dot blots as percentage of cells positively stained for activation markers within the CD19+ or CD3+ population using BD CellQest Software.
For assessing the inhibitory property of compounds, compounds were first dissolved and diluted in DMSO followed by a 1:50 dilution in medium. Splenocytes from Balb/c mice were isolated, re-suspended and transfered to 96 well plates as described above (200 μl/well). The diluted compounds or solvent were added to the plates (25 μl) and incubated at 37° C. for 1 hour. Then the cultures were stimulated with 25 μl anti-IgM mAb/well (final concentration 30 μg/ml) for 24 hours at 37° C. and stained with anti-mouse CD86-FITC and anti-mouse CD19-PerCP (2 μl of each antibody/well). CD86 expression on CD19 positive B cells was quantified by flow cytometry as described above.

T1 sequence (P42336 with tags, fused parts or gaps limits assumed, species assumed): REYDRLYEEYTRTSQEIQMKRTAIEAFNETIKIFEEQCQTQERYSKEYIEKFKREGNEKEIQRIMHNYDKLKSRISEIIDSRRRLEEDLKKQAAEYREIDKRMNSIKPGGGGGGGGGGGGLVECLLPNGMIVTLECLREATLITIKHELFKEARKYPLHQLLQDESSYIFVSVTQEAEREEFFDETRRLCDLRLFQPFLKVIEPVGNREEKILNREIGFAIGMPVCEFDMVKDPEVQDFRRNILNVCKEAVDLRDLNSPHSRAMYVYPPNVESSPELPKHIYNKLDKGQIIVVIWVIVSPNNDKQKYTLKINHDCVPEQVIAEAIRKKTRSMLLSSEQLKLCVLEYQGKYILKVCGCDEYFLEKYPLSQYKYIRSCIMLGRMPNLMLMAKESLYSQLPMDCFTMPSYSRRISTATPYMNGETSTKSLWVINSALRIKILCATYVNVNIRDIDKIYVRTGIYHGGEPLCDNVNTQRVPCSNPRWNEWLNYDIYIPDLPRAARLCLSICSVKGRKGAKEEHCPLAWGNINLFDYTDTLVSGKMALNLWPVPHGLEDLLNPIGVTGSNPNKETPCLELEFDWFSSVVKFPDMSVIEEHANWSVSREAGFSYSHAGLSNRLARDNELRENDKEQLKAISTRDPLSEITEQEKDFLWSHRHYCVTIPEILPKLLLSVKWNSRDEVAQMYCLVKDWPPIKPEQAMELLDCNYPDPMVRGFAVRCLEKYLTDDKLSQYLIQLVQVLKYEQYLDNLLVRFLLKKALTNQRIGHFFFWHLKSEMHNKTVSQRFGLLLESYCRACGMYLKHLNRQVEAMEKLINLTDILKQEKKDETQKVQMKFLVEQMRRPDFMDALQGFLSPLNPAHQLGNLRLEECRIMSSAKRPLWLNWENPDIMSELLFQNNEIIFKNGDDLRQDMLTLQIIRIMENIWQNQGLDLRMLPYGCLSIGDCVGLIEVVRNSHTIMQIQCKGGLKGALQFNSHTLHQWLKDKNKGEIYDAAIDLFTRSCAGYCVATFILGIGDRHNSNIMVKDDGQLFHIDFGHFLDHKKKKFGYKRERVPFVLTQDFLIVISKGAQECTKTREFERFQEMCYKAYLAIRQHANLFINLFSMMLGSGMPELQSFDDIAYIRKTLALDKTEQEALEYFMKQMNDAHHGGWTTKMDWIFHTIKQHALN

IC50 [1] | IC50 [2] | Structure (SMILES)
779 nM | 69.5 nM | COc1ncc(-c2ccc3ncnc(-c4cccc(C(=O)N5CCN(C)CC5)c4)c3c2)cn1 [Example 2]
712 nM | 20.1 nM | COc1ccc(-c2ccc3ncnc(-c4cccc(C(=O)N5CCN(C(C)=O)CC5)c4)c3c2)cc1S(=O)(=O)N1CCCC1 [Example 7]
320 nM | 54 nM | CNc1ncc(-c2ccc3ncnc(-c4cncc(C(=O)N5CCN(C)CC5)c4)c3c2)cc1C [Example 75, {5-[6-(5-Methyl-6-methylamino-pyridin-3-yl)-quinazolin-4-yl]-pyridin-3-yl}-(4-methyl-piperazin-1-yl)-methanone]
401 nM | 79 nM | COc1ccc(-c2ccc3ncnc(-c4cncc(C(=O)N5CCNC(C)(C)C5)c4)c3c2)cc1C(F)(F)F [Example 81, (3,3-Dimethyl-piperazin-1-yl)-{5-[6-(4-methoxy-3-trifluoromethyl-phenyl)-quinazolin-4-yl]-pyridin-3-yl}-methanone]
146 nM | 44 nM | COc1ccc(-c2ccc3ncnc(-c4cccc(C(=O)N5C[C@@H]6C[C@H]5CN6C)c4)c3c2)cn1 [Example 91, {3-[6-(6-Methoxy-pyridin-3-yl)-quinazolin-4-yl]-phenyl}-((1S,4S)-5-methyl-2,5-diaza-bicyclo[2.2.1]hept-2-yl)-methanone]
366 nM | 155 nM | COc1ccc(-c2ccc3ncnc(-c4cc(F)cc(C(=O)N5CCN(C(C)=O)CC5)c4)c3c2)cn1 [Example 110, 1-(4-{3-Fluoro-5-[6-(6-methoxy-pyridin-3-yl)-quinazolin-4-yl]-benzoyl}-piperazin-1-yl)-ethanone]
238 nM | 101 nM | COc1ccc(-c2ccc3ncnc(-c4ccc(C)c(C(=O)N5CC6CC5CN6C)c4)c3c2)cn1 (centres unmarked) [Example 117]
